The subject of this assay is T1, recombinant CGTase MY20 (my20).
T1 construct: codon-optimized my20 gene in pET-24a(+), E. coli BL21(DE3), intracellular, Ni-NTA purified
Put plainly: AA-2G synthesis, HPLC […] nm, ping-pong fit. The settings on record: pH 5, 40°C. The format is biochemical, metagenome: marine microorganisms, Mariana Trench.

Among the data in article PMC8195388, “Heterologous Expression of Cyclodextrin Glycosyltransferase my20 in Escherichia coli and Its Application in 2-O-α-D-Glucopyranosyl-L-Ascorbic Acid Production” (Frontiers in Microbiology, 2021) are KmB and KmA values, retold here.

`OC[C@H]1O[C@@H]2O[C@H]3[C@H](O)[C@@H](O)[C@@H](O[C@H]4[C@H](O)[C@@H](O)[C@@H](O[C@H]5[C@H](O)[C@@H](O)[C@@H](O[C@H]6[C@H](O)[C@@H](O)[C@@H](O[C@H]7[C@H](O)[C@@H](O)[C@@H](O[C@H]8[C@H](O)[C@@H](O)[C@@H](O[C@H]1[C@H](O)[C@H]2O)O[C@@H]8CO)O[C@@H]7CO)O[C@@H]6CO)O[C@@H]5CO)O[C@@H]4CO)O[C@@H]3CO` [β-CD]: the KmB (glucosyl donor, co-substrate L-ascorbic acid 1-50 g/L) is 6.9 ± 0.04 g/L. As for `O=C1O[C@H]([C@@H](O)CO)C(O)=C1O` [L-ascorbic acid], the KmA (glucosyl acceptor, co-substrate beta-cyclodextrin 0.5-25 g/L) is given as 9.2 ± 0.06 g/L.
